Results on 3 compounds are retold here after article PMC10648927, “Examining the activity of cefepime-taniborbactam against Burkholderia cepacia complex and Burkholderia gladioli isolated from cystic fibrosis patients in the United States” (Antimicrobial Agents and Chemotherapy, 2023).

Each structure is given as a SMILES string. ≈ marks a conversion by molar mass, not a printed value.

Common to all, as to parameters: agar dilution MIC, growth inhibition of clinical Burkholderia isolates
The subject of one experiment is T1, B. arboris AU14372.
T1 construct: AU14372
Kind of experiment: organism not typed. The source says: (§1) We evaluated the activity of cefepime-taniborbactam against a panel of 140 Bcc clinical isolates (i.e., species ambifaria, arboris, cenocepacia, cepacia, contaminans, diffusa, dolosa, multivorans, pseudomultivorans, pyrrocinia, seminalis, stabilis, ubonensis, and vietnamiensis) and 10 B. gladioli from the Burkholderia cepacia Research Laboratory and Repository (University of Michigan) ([22], [25], [31]) (Supplementary Material, Tables S1 and S2). K. pneumoniae ATCC 700603 carrying bla SHV-18 and K. pneumoniae ATCC BAA-1705 harboring bla KPC strains were used as controls for β-lactam and β-lactamase inhibitor integrity; all controls tested within the anticipated quality control ranges (Table S3). Minimum inhibitory concentration (MIC) results were interpreted using Clinical Laboratory Standards Institute (CLSI) breakpoints, where available ([32]). […] An alternative cefepime-taniborbactam provisional susceptible breakpoint of ≤16 µg/mL is supported by in vivo efficacy data from neutropenic murine infection models (thigh, complicated urinary tract, and lung) ([15] [–] [17]) and data from safety and pharmacokinetics studies in human volunteers ([33], [34]). The cefepime-taniborbactam antimicrobial activity was compared to cefepime, meropenem, meropenem-vaborbactam, and levofloxacin, to data published for first-line agents (e.g., ceftazidime and trimethoprim-sulfamethoxazole) and to those recommended by the CLSI for clinical testing (e.g., minocycline) against the Bcc and B. gladioli panel ([22], [32]). Of note, the MICs of all these agents were determined by the agar dilution method, which alongside broth microdilution, are recommended by the CLSI to assess the antimicrobial susceptibility of Bcc isolates ([32]).

Experiment [1] has as its system T2, Burkholderia cepacia complex Bcc Indeterminate AU9162.
T2 construct: AU9162
Briefly: microbe, parasite or virus in culture. The following applies: Burkholderia cepacia.
Source text: as §1

A further experiment relates to T3, B. cenocepacia AU0756.
T3 construct: AU0756
Kind of experiment: microbe, parasite or virus in culture. As to conditions: Burkholderia cenocepacia, AU0756.
Source text: as §1

The next experiment concerns T4, B. cenocepacia AU19530.
T4 construct: AU19530
Kind of experiment: microbe, parasite or virus in culture. As to conditions: Burkholderia cenocepacia, AU19530.
Source text: as §1

In another experiment the test system is T5, B. cenocepacia AU24362.
T5 construct: AU24362
Briefly: microbe, parasite or virus in culture. The following applies: Burkholderia cenocepacia, AU24362.
Source text: as §1

The next experiment has as its system T6, B. multivorans AU4507.
T6 construct: AU4507
Kind of experiment: microbe, parasite or virus in culture. The following applies: Burkholderia multivorans, AU4507.
Source text: as §1

Another experiment deals with T7, B. cenocepacia AU20902.
T7 construct: AU20902
Kind of experiment: microbe, parasite or virus in culture. The following applies: Burkholderia cenocepacia, AU20902.
Source text: as §1

The subject of the next experiment is T8, B. gladioli AU29541.
T8 construct: AU29541
Kind of experiment: organism not typed.
Source text: as §1

The next experiment concerns T9, B. cenocepacia AU28111.
T9 construct: AU28111
Kind of experiment: microbe, parasite or virus in culture. The following applies: Burkholderia cenocepacia, AU28111.
Source text: as §1

A further experiment has as its system T10, B. contaminans AU22662.
T10 construct: AU22662
Briefly: organism not typed.
Source text: as §1

A further experiment deals with T11, B. cenocepacia AU20146.
T11 construct: AU20146
Kind of experiment: microbe, parasite or virus in culture. The following applies: Burkholderia cenocepacia, AU20146.
Source text: as §1

For a further experiment, the system named is T12, B. diffusa AU19637.
T12 construct: AU19637
Kind of experiment: organism not typed.
Source text: as §1

Another experiment relates to T13, B. cenocepacia AU19276.
T13 construct: AU19276
Kind of experiment: microbe, parasite or virus in culture. As to conditions: Burkholderia cenocepacia, AU19276.
Source text: as §1

In a further experiment the test system is T14, B. contaminans AU17641.
T14 construct: AU17641
Kind of experiment: organism not typed.
Source text: as §1

In a further experiment the test system is T15, B. cenocepacia AU14381.
T15 construct: AU14381
Kind of experiment: microbe, parasite or virus in culture. The following applies: Burkholderia cenocepacia, AU14381.
Source text: as §1

The next experiment deals with T16, B. multivorans AU14786.
T16 construct: AU14786
Kind of experiment: microbe, parasite or virus in culture. The following applies: Burkholderia multivorans, AU14786.
Source text: as §1

The next experiment relates to T17, B. multivorans AU30441.
T17 construct: AU30441
Briefly: microbe, parasite or virus in culture. As to conditions: Burkholderia multivorans, AU30441.
Source text: as §1

For the next experiment, the system named is T18, B. cepacia AU16396.
T18 construct: AU16396
Briefly: microbe, parasite or virus in culture. The following applies: Burkholderia cepacia, AU16396.
Source text: as §1

In a further experiment the test system is T19, B. cenocepacia AU12265.
T19 construct: AU12265
Briefly: microbe, parasite or virus in culture. The following applies: Burkholderia cenocepacia, AU12265.
Source text: as §1

The next experiment relates to T20, B. multivorans AU25057.
T20 construct: AU25057
Kind of experiment: microbe, parasite or virus in culture. As to conditions: Burkholderia multivorans, AU25057.
Source text: as §1

A further experiment relates to T21, B. multivorans AU27706.
T21 construct: AU27706
Kind of experiment: microbe, parasite or virus in culture. The following applies: Burkholderia multivorans, AU27706.
Source text: as §1

In another experiment the test system is T22, B. ubonensis AU7314.
T22 construct: AU7314
Briefly: organism not typed.
Source text: as §1

The test system of another experiment is T23, B. multivorans AU11233.
T23 construct: AU11233
Briefly: microbe, parasite or virus in culture. The following applies: Burkholderia multivorans, AU11233.
Source text: as §1

As for `CO/N=C(\C(=O)N[C@@H]1C(=O)N2C(C(=O)[O-])=C(C[N+]3(C)CCCC3)CS[C@H]12)c1csc(N)n1` [cefepime], the MIC against B. arboris AU14372 was more than 32 µg/mL; in [1] it was 32 µg/mL (≈ 66.6 µM); against B. cenocepacia AU0756, more than 32 µg/mL; with B. cenocepacia AU19530, more than 32 µg/mL; in the experiment on B. cenocepacia AU24362, more than 32 µg/mL; in the experiment on B. multivorans AU4507 it was 8 µg/mL (≈ 16.6 µM). Also, the MIC turned out to be 16 µg/mL (≈ 33.3 µM) in the experiment on B. cenocepacia AU20902; 32 µg/mL (≈ 66.6 µM) in the experiment on B. gladioli AU29541; 32 µg/mL (≈ 66.6 µM) against B. cenocepacia AU28111; 16 µg/mL (≈ 33.3 µM) against B. contaminans AU22662; 16 µg/mL (≈ 33.3 µM) against B. cenocepacia AU20146; 32 µg/mL (≈ 66.6 µM) against B. diffusa AU19637. For the same compound, the MIC against B. cenocepacia AU19276 was 8 µg/mL (≈ 16.6 µM); against B. contaminans AU17641, 32 µg/mL (≈ 66.6 µM); in the experiment on B. cenocepacia AU14381, 32 µg/mL (≈ 66.6 µM); in the experiment on B. multivorans AU14786, more than 32 µg/mL; against B. multivorans AU30441, 2 µg/mL (≈ 4.16 µM); in the experiment on B. cepacia AU16396, 32 µg/mL (≈ 66.6 µM). The MIC in the experiment with B. cenocepacia AU12265 is 16 µg/mL (≈ 33.3 µM); in the experiment with B. multivorans AU25057 it was 8 µg/mL (≈ 16.6 µM); against B. multivorans AU27706 it was 1 µg/mL (≈ 2.08 µM); in the experiment on B. ubonensis AU7314 it was more than 32 µg/mL; with B. multivorans AU11233, more than 32 µg/mL.
With `C[C@H]1COc2c(N3CCN(C)CC3)c(F)cc3c(=O)c(C(=O)O)cn1c23` [levofloxacin], the MIC is 8 µg/mL (≈ 22.1 µM) in the experiment on B. arboris AU14372; 1 µg/mL (≈ 2.77 µM) in [1]; more than 32 µg/mL in the experiment with B. cenocepacia AU0756; 16 µg/mL (≈ 44.3 µM) against B. cenocepacia AU19530; 8 µg/mL (≈ 22.1 µM) in the experiment on B. cenocepacia AU24362; 8 µg/mL (≈ 22.1 µM) against B. multivorans AU4507. Besides, the MIC in the experiment with B. cenocepacia AU20902 stood at 4 µg/mL (≈ 11.1 µM); in the experiment on B. gladioli AU29541 it was 8 µg/mL (≈ 22.1 µM); against B. cenocepacia AU28111, 4 µg/mL (≈ 11.1 µM); in the experiment on B. contaminans AU22662 it was 4 µg/mL (≈ 11.1 µM); with B. cenocepacia AU20146, 2 µg/mL (≈ 5.53 µM); against B. diffusa AU19637 it was 2 µg/mL (≈ 5.53 µM). The MIC was 0.5 µg/mL (≈ 1.38 µM) against B. cenocepacia AU19276; 4 µg/mL (≈ 11.1 µM) against B. contaminans AU17641; more than 32 µg/mL in the experiment with B. cenocepacia AU14381; more than 32 µg/mL in the experiment with B. multivorans AU14786; 2 µg/mL (≈ 5.53 µM) in the experiment with B. multivorans AU30441; more than 32 µg/mL with B. cepacia AU16396. Besides, the MIC against B. cenocepacia AU12265 worked out at 4 µg/mL (≈ 11.1 µM); against B. multivorans AU25057 it was 8 µg/mL (≈ 22.1 µM); against B. multivorans AU27706 it was 1 µg/mL (≈ 2.77 µM); in the experiment with B. ubonensis AU7314 it was 4 µg/mL (≈ 11.1 µM); with B. multivorans AU11233, 16 µg/mL (≈ 44.3 µM).
In the case of `C[C@@H](O)[C@H]1C(=O)N2C(C(=O)O)=C(S[C@@H]3CN[C@H](C(=O)N(C)C)C3)[C@H](C)[C@H]12` [meropenem], the MIC was 16 µg/mL (≈ 41.7 µM) with B. arboris AU14372; 4 µg/mL (≈ 10.4 µM) in experiment [1]; 32 µg/mL (≈ 83.4 µM) in the experiment with B. cenocepacia AU0756; 8 µg/mL (≈ 20.9 µM) in the experiment on B. cenocepacia AU19530; 16 µg/mL (≈ 41.7 µM) in the experiment on B. cenocepacia AU24362; 8 µg/mL (≈ 20.9 µM) in the experiment with B. multivorans AU4507. Further, the MIC against B. cenocepacia AU20902 stood at 4 µg/mL (≈ 10.4 µM); in the experiment with B. gladioli AU29541, 8 µg/mL (≈ 20.9 µM); against B. cenocepacia AU28111 it was 4 µg/mL (≈ 10.4 µM); in the experiment with B. contaminans AU22662, 4 µg/mL (≈ 10.4 µM); with B. cenocepacia AU20146, 4 µg/mL (≈ 10.4 µM); in the experiment on B. diffusa AU19637 it was 2 µg/mL (≈ 5.22 µM). The MIC was 2 µg/mL (≈ 5.22 µM) in the experiment with B. cenocepacia AU19276; 4 µg/mL (≈ 10.4 µM) with B. contaminans AU17641; 4 µg/mL (≈ 10.4 µM) against B. cenocepacia AU14381; 16 µg/mL (≈ 41.7 µM) in the experiment with B. multivorans AU14786; 8 µg/mL (≈ 20.9 µM) in the experiment on B. multivorans AU30441; 8 µg/mL (≈ 20.9 µM) against B. cepacia AU16396. For the same compound, the MIC in the experiment with B. cenocepacia AU12265 turned out to be 4 µg/mL (≈ 10.4 µM); with B. multivorans AU25057, 4 µg/mL (≈ 10.4 µM); against B. multivorans AU27706, 0.5 µg/mL (≈ 1.3 µM); against B. ubonensis AU7314, 32 µg/mL (≈ 83.4 µM); against B. multivorans AU11233, 8 µg/mL (≈ 20.9 µM).
